Patent USRE48335E1, “Polymyxin derivatives as antimicrobial compounds” (priority 2014, dated 2020)
≈ marks a conversion by molar mass, not a printed value. Positions of bridges follow the written chain, without caps; N, C: chain ends. Non-standard residues stand in square brackets, D forms with d. Residues, ends and D or L forms follow the SMILES beside them. *: point of attachment. Phenylacetyl(3,4-Cl2) = O=C(Cc1ccc(Cl)c(Cl)c1)*; Phenylacetyl(4-Me) = Cc1ccc(CC(=O)*)cc1; dNva = CCC[C@@H](N)C(=O)O; Octanoyl = CCCCCCCC(=O)*; Dab = NCC[C@H](N)C(=O)O; X39 = O=C(Cc1ccccc1Cl)*; X43 = O=C(c1cccc(F)c1)*; Abu = CC[C@H](N)C(=O)O; Dap = NC[C@H](N)C(=O)O; X34 = Cc1ccccc1CC(=O)*; X35 = O=C(Cc1ccccc1F)*; X44 = O=C(c1ccccc1Cl)*; X27 = Cc1ccccc1C(=O)*; X40 = O=C(c1ccccc1F)*

Legend:
Acinetobacter baumannii = test system: Acinetobacter baumannii
Summary of the method: (§1)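 Using polymyxin B sulphate as comparator control, the trifluoroacetate-salt lipopeptides were assayed in CAMHB by broth microdilution to CLSI M100-S18, and MICs recorded.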

Pseudomonas aeruginosa = test system: Pseudomonas aeruginosa
Summary of the method: as §1

Enterobacter cloacae = test system: Enterobacter cloacae
Summary of the method: as §1

Compound	Minimum inhibitory concentration, Ab A ATCC 17978 (Acinetobacter baumannii)	Minimum inhibitory concentration, Ab ATCC 19606 (Acinetobacter baumannii)	Minimum inhibitory concentration, Ab FADDI-AB034 (Acinetobacter baumannii)	Minimum inhibitory concentration, Pa ATCC 27853 (Pseudomonas aeruginosa)	Minimum inhibitory concentration, Pa FADDI-PA022 (Pseudomonas aeruginosa)	Minimum inhibitory concentration, Pa FADDI-PA025 (Pseudomonas aeruginosa)	Minimum inhibitory concentration, Ec FADDI-EC001 (Enterobacter cloacae)	Minimum inhibitory concentration, Ec FADDI-EC003 (Enterobacter cloacae)	Minimum inhibitory concentration, Ec FADDI-EC006 (Enterobacter cloacae)
CCCCCCCC(=O)N[C@@H](CCN)C(=O)N[C@H](C(=O)N[C@@H](CN)C(=O)N[C@H]1CCNC(=O)[C@H]([C@@H](C)O)NC(=O)[C@H](CCN)NC(=O)[C@H](CCN)NC(=O)[C@H](CC)NC(=O)[C@@H](CCC)NC(=O)[C@H](CCN)NC1=O)[C@@H](C)O [Compound 69] (Octanoyl-[Dab]T[Dap][Dab][Dab][dNva][Abu][Dab][Dab]T; lactam 4-C)	0.5 µg/mL (≈ 0.455 µM)	0.5 µg/mL (≈ 0.455 µM)	0.25 µg/mL (≈ 0.227 µM)	0.5 µg/mL (≈ 0.455 µM)	0.5 µg/mL (≈ 0.455 µM)	8 µg/mL (≈ 7.28 µM)	0.25 µg/mL (≈ 0.227 µM)	<0.125 µg/mL	<0.125 µg/mL
CC[C@@H]1NC(=O)[C@@H](CC(C)C)NC(=O)[C@H](CCN)NC(=O)[C@@H](NC(=O)[C@H](CN)NC(=O)[C@@H](NC(=O)[C@H](CCN)NC(=O)c2ccccc2Cl)[C@@H](C)O)CCNC(=O)[C@H]([C@@H](C)O)NC(=O)[C@H](CCN)NC(=O)[C@H](CCN)NC1=O [Compound 72] (X44-[Dab]T[Dap][Dab][Dab][dL][Abu][Dab][Dab]T; lactam 4-C)	4 µg/mL (≈ 3.55 µM)	8 µg/mL (≈ 7.11 µM)	4 µg/mL (≈ 3.55 µM)	0.5 µg/mL (≈ 0.444 µM)	0.5 µg/mL (≈ 0.444 µM)	4 µg/mL (≈ 3.55 µM)	0.5 µg/mL (≈ 0.444 µM)	0.25 µg/mL (≈ 0.222 µM)	0.5 µg/mL (≈ 0.444 µM)
CC[C@@H]1NC(=O)[C@@H](CC(C)C)NC(=O)[C@H](CCN)NC(=O)[C@@H](NC(=O)[C@H](CN)NC(=O)[C@@H](NC(=O)[C@H](CCN)NC(=O)c2ccccc2F)[C@@H](C)O)CCNC(=O)[C@H]([C@@H](C)O)NC(=O)[C@H](CCN)NC(=O)[C@H](CCN)NC1=O [Compound 73] (X40-[Dab]T[Dap][Dab][Dab][dL][Abu][Dab][Dab]T; lactam 4-C)	4 µg/mL (≈ 3.61 µM)	8 µg/mL (≈ 7.21 µM)	4 µg/mL (≈ 3.61 µM)	0.5 µg/mL (≈ 0.451 µM)	1 µg/mL (≈ 0.901 µM)	4 µg/mL (≈ 3.61 µM)	0.25 µg/mL (≈ 0.225 µM)	0.25 µg/mL (≈ 0.225 µM)	1 µg/mL (≈ 0.901 µM)
CC[C@@H]1NC(=O)[C@@H](CC(C)C)NC(=O)[C@H](CCN)NC(=O)[C@@H](NC(=O)[C@H](CN)NC(=O)[C@@H](NC(=O)[C@H](CCN)NC(=O)c2ccccc2C)[C@@H](C)O)CCNC(=O)[C@H]([C@@H](C)O)NC(=O)[C@H](CCN)NC(=O)[C@H](CCN)NC1=O [Compound 75] (X27-[Dab]T[Dap][Dab][Dab][dL][Abu][Dab][Dab]T; lactam 4-C)	1 µg/mL (≈ 0.905 µM)	1 µg/mL (≈ 0.905 µM)	1 µg/mL (≈ 0.905 µM)	0.5 µg/mL (≈ 0.452 µM)	1 µg/mL (≈ 0.905 µM)	2 µg/mL (≈ 1.81 µM)	0.25 µg/mL (≈ 0.226 µM)	0.25 µg/mL (≈ 0.226 µM)	0.5 µg/mL (≈ 0.452 µM)
CC[C@@H]1NC(=O)[C@@H](CC(C)C)NC(=O)[C@H](CCN)NC(=O)[C@@H](NC(=O)[C@H](CN)NC(=O)[C@@H](NC(=O)[C@H](CCN)NC(=O)Cc2ccccc2C)[C@@H](C)O)CCNC(=O)[C@H]([C@@H](C)O)NC(=O)[C@H](CCN)NC(=O)[C@H](CCN)NC1=O [Compound 76] (X34-[Dab]T[Dap][Dab][Dab][dL][Abu][Dab][Dab]T; lactam 4-C)	1 µg/mL (≈ 0.893 µM)	2 µg/mL (≈ 1.79 µM)	1 µg/mL (≈ 0.893 µM)	0.5 µg/mL (≈ 0.447 µM)	1 µg/mL (≈ 0.893 µM)	4 µg/mL (≈ 3.57 µM)	0.25 µg/mL (≈ 0.223 µM)	0.25 µg/mL (≈ 0.223 µM)	0.5 µg/mL (≈ 0.447 µM)
CC[C@@H]1NC(=O)[C@@H](CC(C)C)NC(=O)[C@H](CCN)NC(=O)[C@@H](NC(=O)[C@H](CN)NC(=O)[C@@H](NC(=O)[C@H](CCN)NC(=O)Cc2ccc(C)cc2)[C@@H](C)O)CCNC(=O)[C@H]([C@@H](C)O)NC(=O)[C@H](CCN)NC(=O)[C@H](CCN)NC1=O [Compound 80] ({Phenylacetyl(4-Me)}-[Dab]T[Dap][Dab][Dab][dL][Abu][Dab][Dab]T; lactam 4-C)	1 µg/mL (≈ 0.893 µM)	4 µg/mL (≈ 3.57 µM)	2 µg/mL (≈ 1.79 µM)	0.5 µg/mL (≈ 0.447 µM)	1 µg/mL (≈ 0.893 µM)	2 µg/mL (≈ 1.79 µM)	<0.125 µg/mL	0.25 µg/mL (≈ 0.223 µM)	4 µg/mL (≈ 3.57 µM)
CC[C@@H]1NC(=O)[C@@H](CC(C)C)NC(=O)[C@H](CCN)NC(=O)[C@@H](NC(=O)[C@H](CN)NC(=O)[C@@H](NC(=O)[C@H](CCN)NC(=O)Cc2ccc(Cl)c(Cl)c2)[C@@H](C)O)CCNC(=O)[C@H]([C@@H](C)O)NC(=O)[C@H](CCN)NC(=O)[C@H](CCN)NC1=O [Compound 81] ({Phenylacetyl(3,4-Cl2)}-[Dab]T[Dap][Dab][Dab][dL][Abu][Dab][Dab]T; lactam 4-C)	0.5 µg/mL (≈ 0.426 µM)	1 µg/mL (≈ 0.852 µM)	0.25 µg/mL (≈ 0.213 µM)	2 µg/mL (≈ 1.7 µM)	4 µg/mL (≈ 3.41 µM)	1 µg/mL (≈ 0.852 µM)	0.25 µg/mL (≈ 0.213 µM)	<0.125 µg/mL	0.25 µg/mL (≈ 0.213 µM)
CC[C@@H]1NC(=O)[C@@H](CC(C)C)NC(=O)[C@H](CCN)NC(=O)[C@@H](NC(=O)[C@H](CN)NC(=O)[C@@H](NC(=O)[C@H](CCN)NC(=O)Cc2ccccc2Cl)[C@@H](C)O)CCNC(=O)[C@H]([C@@H](C)O)NC(=O)[C@H](CCN)NC(=O)[C@H](CCN)NC1=O [Compound 84] (X39-[Dab]T[Dap][Dab][Dab][dL][Abu][Dab][Dab]T; lactam 4-C)	2 µg/mL (≈ 1.75 µM)	8 µg/mL (≈ 7.02 µM)	2 µg/mL (≈ 1.75 µM)	0.5 µg/mL (≈ 0.439 µM)	2 µg/mL (≈ 1.75 µM)	2 µg/mL (≈ 1.75 µM)	<0.125 µg/mL	0.25 µg/mL (≈ 0.219 µM)	0.5 µg/mL (≈ 0.439 µM)
CC[C@@H]1NC(=O)[C@@H](CC(C)C)NC(=O)[C@H](CCN)NC(=O)[C@@H](NC(=O)[C@H](CN)NC(=O)[C@@H](NC(=O)[C@H](CCN)NC(=O)Cc2ccccc2F)[C@@H](C)O)CCNC(=O)[C@H]([C@@H](C)O)NC(=O)[C@H](CCN)NC(=O)[C@H](CCN)NC1=O [Compound 85] (X35-[Dab]T[Dap][Dab][Dab][dL][Abu][Dab][Dab]T; lactam 4-C)	2 µg/mL (≈ 1.78 µM)	4 µg/mL (≈ 3.56 µM)	2 µg/mL (≈ 1.78 µM)	0.5 µg/mL (≈ 0.445 µM)	2 µg/mL (≈ 1.78 µM)	2 µg/mL (≈ 1.78 µM)	0.5 µg/mL (≈ 0.445 µM)	1 µg/mL (≈ 0.89 µM)	1 µg/mL (≈ 0.89 µM)
CC[C@@H]1NC(=O)[C@@H](CC(C)C)NC(=O)[C@H](CCN)NC(=O)[C@@H](NC(=O)[C@H](CN)NC(=O)[C@@H](NC(=O)[C@H](CCN)NC(=O)c2cccc(F)c2)[C@@H](C)O)CCNC(=O)[C@H]([C@@H](C)O)NC(=O)[C@H](CCN)NC(=O)[C@H](CCN)NC1=O [Compound 86] (X43-[Dab]T[Dap][Dab][Dab][dL][Abu][Dab][Dab]T; lactam 4-C)	2 µg/mL (≈ 1.8 µM)	4 µg/mL (≈ 3.61 µM)	1 µg/mL (≈ 0.901 µM)	0.5 µg/mL (≈ 0.451 µM)	1 µg/mL (≈ 0.901 µM)	2 µg/mL (≈ 1.8 µM)	1 µg/mL (≈ 0.901 µM)	1 µg/mL (≈ 0.901 µM)	1 µg/mL (≈ 0.901 µM)
